In paper PMC4927141, “Structural Insights into a Novel Class of Aspartate Aminotransferase from Corynebacterium glutamicum” (PLoS ONE, 2016):

Key:
[1] = molecular target: T1, CgAspAT (Corynebacterium glutamicum, UniProt Q8NTR2); experiment: malate dehydrogenase-coupled NADH oxidation, […] nm; type: biochemical; settings: 300 mM L-aspartate, 50 mM α-ketoglutarate, 100 mM Tris-HCl pH 8.0, 303 K, no added PLP
T1 construct: gene Cgl0240; pET30a, Ni-NTA purified, E. coli BL21(DE3)-T1R host; about 90 kDa homodimer; core domain Leu56-Gly304, C-terminal residue named Asn426

[2] = molecular target: T1, CgAspAT; experiment: X-ray crystal structure, […] Å; type: binding; settings: copurified, no PLP added; 28% PEG 3350, 200 mM ammonium citrate dibasic; near Lys259 (known aldimine lysine, covalent bond not stated for this structure)
[3] = molecular target: the molecule itself; experiment: SEC; Sephacryl S-300 prep-grade column (320 ml), 40 mM Tris-HCl pH 8.0, 277 K; last step of the purification; dimer of the protein with itself

## N[C@@H](CC(=O)O)C(=O)O [L-aspartate]
[1]
  malate dehydrogenase-coupled NADH oxidation, 340 nm: CgAspAT enzymes catalyze L-asparate and α-ketoglutarate to L-glutamate and oxaloacetate

## Cc1ncc(COP(=O)(O)O)c(C=O)c1O [PLP]
[2]
  X-ray crystal structure, 2.0 Å: we observed the electron density for the PLP cofactor in our structure without adding it

## O=C(O)CCC(=O)C(=O)O [α-ketoglutarate]
[1]
  malate dehydrogenase-coupled NADH oxidation, 340 nm: CgAspAT enzymes catalyze L-asparate and α-ketoglutarate to L-glutamate and oxaloacetate

B1: Aspartate aminotransferase from Corynebacterium glutamicum ATCC13032 (enzyme, Corynebacterium glutamicum ATCC 13032)
chain: MSSVSLQDFDAERIGLFHEDIKRKFDELKSKNLKLDLTRGKPSSEQLDFADELLALPGKGDFKAADGTDVRNYGGLDGIVDIRQIWADLLGVPVEQVLAGDASSLNIMFDVISWSYIFGNNDSVQPWSKEETVKWICPVPGYDRHFSITERFGFEMISVPMNEDGPDMDAVEELVKNPQVKGMWVVPVFSNPTGFTVTEDVAKRLSAMETAAPDFRVVWDNAYAVHTLTDEFPEVIDIVGLGEAAGNPNRFWAFTSTSKITLAGAGVSFFLTSAENRKWYTGHAGIRGIGPNKVNQLAHARYFGDAEGVRAVMRKHAASLAPKFNKVLEILDSRLAEYGVAQWTVPAGGYFISLDVVPGTASRVAELAKEAGIALTGAGSSYPLRQDPENKNLRLAPSLPPVEELEVAMDGVATCVLLAAAEHYAN
notes: Aspartate aminotransferase (CgAspAT) of Corynebacterium glutamicum ATCC 13032, gene amplified from chromosomal DNA and cloned into pET30a; residues up to Asn426 are named in the structure; also called CgAspAT; AspAT; source: E. coli BL21(DE3)-T1R, purified (Ni-NTA, size-exclusion chromatography on Sephacryl S-300)
[3]
  stoichiometry N: 2
